Assay [1] deals with T1, Melatonin receptor type 1B (Homo sapiens) (UniProt P49286).
T1 sequence (whole entry): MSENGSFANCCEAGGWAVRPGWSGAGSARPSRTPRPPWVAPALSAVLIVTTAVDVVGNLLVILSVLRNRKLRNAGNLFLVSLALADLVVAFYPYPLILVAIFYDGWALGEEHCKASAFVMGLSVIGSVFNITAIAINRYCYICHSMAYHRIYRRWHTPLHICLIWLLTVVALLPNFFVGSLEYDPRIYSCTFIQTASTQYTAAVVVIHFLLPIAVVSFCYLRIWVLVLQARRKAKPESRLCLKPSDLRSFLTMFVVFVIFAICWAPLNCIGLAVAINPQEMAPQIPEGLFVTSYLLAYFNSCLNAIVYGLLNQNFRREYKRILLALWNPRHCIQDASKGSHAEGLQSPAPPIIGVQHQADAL
As to the kind of experiment: Intrinsic activity at human cloned MT2 receptor expressed in mouse NIH-3T3 cells assessed as stimulation of [35S]GTPgammaS binding relative to melatonin. The conditions noted are these: NIH3T3. Type of assay: functional, cell-based.

Assay [2] has as its target T2, Melatonin receptor type 1A (Homo sapiens, UniProt P48039). As to the kind of experiment: Displacement of 2-[125I]iodomelatonin from human cloned MT1 receptor expressed in mouse NIH-3T3 cell membrane. Type of assay: cell membranes, NIH3T3.
Assay [3] addresses T3, Melatonin receptor type 1B (Homo sapiens, UniProt P49286).
T3 sequence (P49286 whole entry): T1 sequence (whole entry)
Description: Displacement of 2-[125I]iodomelatonin from human cloned MT2 receptor expressed in mouse NIH-3T3 cell membrane. Type of assay: cell membranes, NIH3T3.

For assay [4], the target named is T2, Melatonin receptor type 1A. As to the kind of experiment: Intrinsic activity at human cloned MT1 receptor expressed in mouse NIH-3T3 cells assessed as stimulation of [35S]GTPgammaS binding relative to melatonin. The assay is classed as functional, cell-based. As to conditions: NIH3T3.
A further assay is filed under the species Homo sapiens. Description: Selectivity index, ratio of Ki for human cloned MT2 receptor to Ki for human cloned MT1 receptor.

T2 sequence (P48039 whole entry): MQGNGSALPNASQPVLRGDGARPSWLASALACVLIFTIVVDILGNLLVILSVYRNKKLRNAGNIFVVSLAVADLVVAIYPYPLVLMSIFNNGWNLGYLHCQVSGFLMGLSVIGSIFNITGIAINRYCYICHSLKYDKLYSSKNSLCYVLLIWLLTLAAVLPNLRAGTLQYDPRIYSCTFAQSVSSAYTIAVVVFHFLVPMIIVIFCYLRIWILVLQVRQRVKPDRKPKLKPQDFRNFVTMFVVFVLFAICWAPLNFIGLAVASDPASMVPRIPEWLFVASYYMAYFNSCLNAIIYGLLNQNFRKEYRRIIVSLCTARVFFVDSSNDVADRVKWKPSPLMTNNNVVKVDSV

The Ki is the dissociation constant of the complex between target and ligand, obtained from inhibition or displacement. Lower therefore signals a stronger hold on the target. In the case of `COc1cccc(N(CCCCCCN(CCNC(C)=O)c2cccc(OC)c2)CCNC(C)=O)c1`, the Intrinsic activity in assay [1] is -0.09; in assay [4] it was -0.04. Also, the Ki in assay [2] is 0.741 µM; in assay [3] it was 0.0363 µM. In the assay filed under Homo sapiens, the Ratio Ki came to 0.05.

Take `CC(=O)NCCN(C)c1cccc(OCCCCCCOc2ccccc2)c1`: the Intrinsic activity in assay [1] turned out to be 0.54; in assay [4], 0.49. The Ki in assay [2] was 0.0145 µM; in assay [3], 0.158 µM. Besides, the Ratio Ki in the assay listed under Homo sapiens turned out to be 11.

`CC(=O)NCCN(C)c1cccc(OCCCCCCOc2cccc(N(C)CCNC(C)=O)c2)c1`: the Intrinsic activity in assay [1] was 0.33; in assay [4] it was 0.44. In addition, the Ki is 0.00339 µM in assay [2] and 0.182 µM in assay [3]. The Ratio Ki in the assay filed under Homo sapiens turned out to be 54.

As for `CC(=O)NCCN(C)c1cccc(OCCCCCCCCOc2cccc(N(C)CCNC(C)=O)c2)c1`, the Intrinsic activity in assay [1] was determined as 0.38; in assay [4], 0.47. In addition, the Ki in assay [2] was 0.02 µM; in assay [3], 0.0933 µM. Moreover, the Ratio Ki in the assay listed under Homo sapiens amounted to 4.7.

For `CC(=O)NCCN(C)c1cccc(OCCCOc2cccc(N(C)CCNC(C)=O)c2)c1`, the Intrinsic activity in assay [1] was determined as 0.33; in assay [4], 0.26. The inhibitory constant (Ki) in assay [2] is 0.0204 µM; in assay [3], 2.09 µM. Further, the Ratio Ki in the assay filed under Homo sapiens is 102.

Consider `CC(=O)NCCN(C)c1cccc(OCCCCOc2cccc(N(C)CCNC(C)=O)c2)c1`, for which the Intrinsic activity in assay [1] was found to be 0.18; in assay [4], 0.21. In addition, the figures for the Ki in assay [2] and in assay [3] were 0.0427 µM and 1 µM, respectively. For the same molecule, the Ratio Ki in the assay filed under Homo sapiens stood at 23.

`CC(=O)NCCN(C)c1cccc(OCCCCCOc2cccc(N(C)CCNC(C)=O)c2)c1`: the Intrinsic activity in assay [1] is 0.64; in assay [4] it was 0.46. Besides, the values for the Ki in assay [2] and in assay [3] were 0.0575 µM and 0.813 µM, respectively. Also, in the assay listed under Homo sapiens, the Ratio Ki is 14.

For the molecule `COc1cccc(N(CCNC(C)=O)C(=O)CCCCC(=O)N(CCNC(C)=O)c2cccc(OC)c2)c1`, the values for the Intrinsic activity in assay [1] and in assay [4] were 0.91 and 0.94, respectively. Besides, the Ki in assay [2] is 0.288 µM; in assay [3], 0.245 µM. Besides, the Ratio Ki in the assay listed under Homo sapiens stood at 0.85.

As to `CC(=O)NCCN(C)c1cccc(OCCCCCCCCCCOc2cccc(N(C)CCNC(C)=O)c2)c1`, the Intrinsic activity came to 0.57 in assay [1] and 0.42 in assay [4]. Also, the values for the inhibition constant (Ki) in assay [2] and in assay [3] were 0.00398 µM and 0.0407 µM, respectively. The Ratio Ki in the assay filed under Homo sapiens was 10.

In the case of `COc1cccc(N(CCCCCCCCCCN(CCNC(C)=O)c2cccc(OC)c2)CCNC(C)=O)c1`, the Intrinsic activity worked out at 0.37 in assay [1] and 0.12 in assay [4]. Moreover, the Ki in assay [2] is 0.38 µM; in assay [3], 0.309 µM. In addition, the Ratio Ki in the assay filed under Homo sapiens amounted to 0.8.

The values above are taken from ChEMBL document CHEMBL1811841 (Bioorg Med Chem, 2011).
